≈ marks a conversion by molar mass, not a printed value. Entries after “also recorded” stand apart in the source; their conditions may differ.
Columns and labels:
[1] = tested on: Fusobacterium necrophorum; assay: MIC against anaerobic bacteria, standard agar-dilution assay (Table IX); format: cell-based; settings: Fusobacterium necrophorum; 1 strain; Gram-negative anaerobe; 24-hour incubation; read-out: MIC
[2] = tested on: Peptostreptococcus anaerobius; assay: as above; format: cell-based; settings: Peptostreptococcus anaerobius; 8 strains; Gram-positive anaerobe; 24-hour incubation; read-out: MIC
Peptococcus prevoti = assay: as above; format: cell-based; settings: 4 strains; Gram-positive anaerobe; 24-hour incubation; read-out: MIC
Clostridium perfringens = assay: microbe, parasite or virus in culture; format: cell-based; settings: Clostridium perfringens, 24 h
Peptococcus magnus = assay: MIC against anaerobic bacteria, standard agar-dilution assay (Table IX); format: cell-based; settings: Finegoldia magna; 3 strains; Gram-positive anaerobe; 24-hour incubation; read-out: MIC
[3] = tested on: experimental descending pyelonephritis infection in rats; assay: Rat Descending Pyelonephritis Test (Table XI); format: in vivo
Protocol: In one important aspect of their antibacterial activity, the A82846 antibiotics are useful for treating pyelonephritis. […] This test was carried out using a procedure like that described in U.S. Pat. No. 4,208,403.
^a Doses twice per day subcutaneously for 6 days

[4] = tested on: Cultures A82846 and A82846.1; assay: resistance to antibiotics, antibiotic sensitivity discs on seeded agar plates; settings: disc 30 μg
[5] = tested on: Streptococcus sp. group. D; assay: MIC by standard agar-dilution assay (Table VIII); format: cell-based; settings: Streptococcus, 20 strains tested, read-out: MIC
Protocol: (§1) The MIC's in Tables VII and VIII were determined by standard agar-dilution assays.

Staphylococcus aureus [6] = assay: MIC by standard agar-dilution assay (Table VIII); format: cell-based; settings: Staphylococcus aureus, 20 strains tested, read-out: MIC
Protocol: as §1

[7] = tested on: Staphylococcus epidermidis; assay: MIC by standard agar-dilution assay (Table VIII); format: cell-based; settings: Staphylococcus epidermidis, 20 strains tested, read-out: MIC
Protocol: as §1

Streptococcus pneumoniae [8] = assay: MIC by standard agar-dilution assay (Table VIII); format: cell-based; settings: Streptococcus pneumoniae, 20 strains tested, read-out: MIC
Protocol: as §1

Streptococcus pyogenes [9] = assay: MIC by standard agar-dilution assay (Table VIII); format: cell-based; settings: Streptococcus pyogenes, 12 strains tested, read-out: MIC
Protocol: as §1

Streptococcus salivaris = assay: MIC by standard agar-dilution assay (Table VIII); format: cell-based; settings: Streptococcus, 1 strain tested, read-out: MIC
Protocol: as §1

Streptococcus sanguis = assay: MIC by standard agar-dilution assay (Table VIII); format: cell-based; settings: Streptococcus, 4 strains tested, read-out: MIC
Protocol: as §1

Streptococcus mutans = assay: MIC by standard agar-dilution assay (Table VIII); format: cell-based; settings: Streptococcus mutans, 2 strains tested, read-out: MIC
Protocol: as §1

[10] = tested on: Bacteroides melaninogenicus; assay: MIC against anaerobic bacteria, standard agar-dilution assay (Table IX); format: cell-based; settings: 2 strains; Gram-negative anaerobe; 24-hour incubation; read-out: MIC
Fusobacterium symbiosum = assay: as above; format: cell-based; settings: Fusobacterium; 1 strain; Gram-negative anaerobe; 24-hour incubation; read-out: MIC
[11] = serum half-life after intravenous administration to rats; settings: rat, in vivo, rats, intravenously
Source text: The A82846 antibiotics have excellent in vitro and in vivo activity against Gram-positive pathogenic bacteria. A particularly unexpected attribute of these antibiotics is their long serum half-life.

Propionibacterium acnes = assay: MIC against anaerobic bacteria, standard agar-dilution assay (Table IX); format: cell-based; settings: Cutibacterium acnes; 19 strains; Gram-positive anaerobe; 24-hour incubation; read-out: MIC
[12] = human medicine; cited from earlier work
Bacteroides vulgatis = assay: MIC against anaerobic bacteria, standard agar-dilution assay (Table IX); format: cell-based; settings: Bacteroides; 1 strain; Gram-negative anaerobe; 24-hour incubation; read-out: MIC
Bacteroides corrodens = assay: as above; format: cell-based; settings: Eikenella corrodens; 1 strain; Gram-negative anaerobe; 24-hour incubation; read-out: MIC
[13] = tested on: Peptococcus asaccharolyticus; assay: as above; format: cell-based; settings: Peptoniphilus asaccharolyticus; 3 strains; Gram-positive anaerobe; 24-hour incubation; read-out: MIC
Staphylococcus aureus [14] = assay: protection of mice experimentally infected with test organism (Table X); format: in vivo; settings: sc, read-out: ED50 Value
Protocol: (§2) The A82846 antibiotics have also shown in vivo antimicrobial activity against experimentally-induced infections in laboratory animals. When two doses of test compound were administered to mice experimentally infected with the test organism, the activity observed was measured as an ED50 value [effective dose in mg/kg to protect 50% of the test animals: see Warren Wick, et al., J. Bacteriol. 81, 233-235 (1961)].
(§3) ^a mg/kg × 2; doses administered subcutaneously to mice 1 and 4

Streptococcus pneumoniae [15] = assay: as above; format: in vivo; settings: sc, read-out: ED50 Value
Protocol: as §2, §3

Streptococcus pyogenes [16] = assay: as above; format: in vivo; settings: sc, read-out: ED50 Value
Protocol: as §2, §3

Clostridium septicum = assay: MIC against anaerobic bacteria, standard agar-dilution assay (Table IX); settings: Clostridium septicum, 24 h
Clostridium difficile = assay: as above; format: cell-based; settings: Clostridioides difficile; 19 strains; Gram-positive anaerobe; 24-hour incubation; read-out: MIC
[17] = tested on: Bacteroides thetaiotaomicron; assay: as above; format: cell-based; settings: Bacteroides thetaiotaomicron; 1 strain; Gram-negative anaerobe; 24-hour incubation; read-out: MIC
Peptococcus variabilis = assay: as above; format: cell-based; settings: 1 strain; Gram-positive anaerobe; 24-hour incubation; read-out: MIC
Peptococcus constellatus = assay: as above; format: cell-based; settings: Streptococcus constellatus; 1 strain; Gram-positive anaerobe; 24-hour incubation; read-out: MIC
[18] = tested on: Streptococcus faecalis X-66; assay: Rat Endocarditis Test, catheter-induced (Table XII); format: in vivo, rats; settings: 16 days, 20 mg/kg × 28, subcutaneous at 12-hour intervals for 14 days
Protocol: The A82846 antibiotics are also useful in the treatment of endocarditis. […] In this test, rats were prepared by inserting a plastic catheter into the right carotid artery, feeding it down into the […] of the heart and anchoring it securely. The animals were allowed to rest two days, and then the test organism, Streptococcus faecalis X-66, was administered intravenously. The organism titer was approximately 5×10^8 /mL; 0.5 mL was administered.
The compounds were administered subcutaneously 15 minutes prior to infection and at 12-hour intervals for 14 days, a total of 28 treatments. The animals were held 2 days after therapy; then, the hearts were removed, homogenized, diluted and plated on trypticase soy agar. Plates were incubated 48 hours before counting.
^a Catheterinduced endocarditis using Streptococcus faecalis X66
^b Subcutaneous doses at 12hour intervals for 14 days
^c % of animals sacrificed with 4 log drop

[19] = tested on: Peptostreptococcus intermedius; assay: MIC against anaerobic bacteria, standard agar-dilution assay (Table IX); format: cell-based; settings: Peptostreptococcus; 3 strains; Gram-positive anaerobe; 24-hour incubation; read-out: MIC
Bacteroides fragilis = assay: as above; format: cell-based; settings: Bacteroides fragilis; 3 strains; Gram-negative anaerobe; 24-hour incubation; read-out: MIC
Eubacterium aerofaciens = assay: as above; format: cell-based; settings: Collinsella aerofaciens; 1 strain; Gram-positive anaerobe; 24-hour incubation; read-out: MIC
[20] = 2 mg/kg × 12, subcutaneous twice per day for 6 days
[21] = 5 mg/kg × 12, subcutaneous twice per day for 6 days
[22] = 10 mg/kg × 12, subcutaneous twice per day for 6 days

CN[C@H](CC(C)C)C(=O)N[C@H]1C(=O)N[C@@H](CC(N)=O)C(=O)N[C@H]2C(=O)N[C@H]3C(=O)N[C@H](C(=O)N[C@H](C(=O)O)c4cc(O)cc(O)c4-c4cc3ccc4O)[C@H](O)c3ccc(c(Cl)c3)Oc3cc2cc(c3O[C@@H]2O[C@H](CO)[C@@H](O)[C@H](O)[C@H]2O[C@H]2C[C@](C)(N)[C@H](O)[C@H](C)O2)Oc2ccc(cc2Cl)[C@H]1O [Vancomycin, vancomycin, reference compound]
MIC [1]: 1 µg/mL (≈ 0.69 µM) | MIC [2]: 0.25 to 2 µg/mL (≈ 0.173 to 1.38 µM) | MIC (Peptococcus prevoti): 1 to 4 µg/mL (≈ 0.69 to 2.76 µM) | MIC (Clostridium perfringens): 2 µg/mL (≈ 1.38 µM) | MIC (Peptococcus magnus): 0.25 to 1 µg/mL (≈ 0.173 to 0.69 µM) | Percent of Rats Cured [3, 20]: 38% | Percent of Rats with a 4-Log Reduction in Titer [3, 20]: 75% | Percent of Rats Cured [3, 21]: 38% | Percent of Rats with a 4-Log Reduction in Titer [3, 21]: 88% | Percent of Rats Cured [3, 22]: 63% | Percent of Rats with a 4-Log Reduction in Titer [3, 22]: 100% | antibiotic resistance [4]: resistant | MIC [5]: 1 to 2 µg/mL (≈ 0.69 to 1.38 µM) | MIC (Staphylococcus aureus [6]): 0.5 to 2 µg/mL (≈ 0.345 to 1.38 µM) | MIC [7]: 1 to 2 µg/mL (≈ 0.69 to 1.38 µM) | MIC (Streptococcus pneumoniae [8]): 0.015 to 4 µg/mL (≈ 0.0104 to 2.76 µM) | MIC (Streptococcus pyogenes [9]): 0.5 µg/mL (≈ 0.345 µM) | MIC (Streptococcus salivaris): 0.5 µg/mL (≈ 0.345 µM) | MIC (Streptococcus sanguis): 0.5 to 1 µg/mL (≈ 0.345 to 0.69 µM) | MIC (Streptococcus mutans): 0.125 to 2 µg/mL (≈ 0.0863 to 1.38 µM) | MIC [10]: > 128 µg/mL | MIC (Fusobacterium symbiosum): 4 µg/mL (≈ 2.76 µM) | half-life [11]: 45 min | MIC (Propionibacterium acnes): 2 to 16 µg/mL (≈ 1.38 to 11 µM) | side effects [12]: ototoxicity; also recorded: nephrotoxicity | MIC (Bacteroides vulgatis): 64 µg/mL (≈ 44.2 µM) | MIC (Bacteroides corrodens): 64 µg/mL (≈ 44.2 µM) | MIC [13]: 1 µg/mL (≈ 0.69 µM) | ED50 (Staphylococcus aureus [14]): 1.3 mg/kg | ED50 (Streptococcus pneumoniae [15]): 1.52 mg/kg | ED50 (Streptococcus pyogenes [16]): 0.72 mg/kg | MIC (Clostridium septicum): 2 µg/mL (≈ 1.38 µM) | MIC (Clostridium difficile): 0.5 to 4 µg/mL (≈ 0.345 to 2.76 µM) | MIC [17]: 64 µg/mL (≈ 44.2 µM) | MIC (Peptococcus variabilis): 1 µg/mL (≈ 0.69 µM) | MIC (Peptococcus constellatus): 1 µg/mL (≈ 0.69 µM) | % Cured [18]: 100% | % With 4 Log Drop ([18]; % of animals sacrificed): 100% | MIC [19]: 0.5 to 1 µg/mL (≈ 0.345 to 0.69 µM) | MIC (Bacteroides fragilis): 32 to 64 µg/mL (≈ 22.1 to 44.2 µM) | MIC (Eubacterium aerofaciens): 2 µg/mL (≈ 1.38 µM)

Reference: patent US5843437A, “A82846 antibiotics” (Eli Lilly and Company, priority 1995, dated 1998)
